Laboratory results: patent publication US20080108706A1, “Chemical resection of pancreas” (priority 1999, published 2008)

How the values were obtained:
[1] = test system: Pancreatic Ductal Adenocarcinoma #03; assay: Evaluation against early stage pancreatic ductal adenocarcinoma #03 in BDF mice; type: in vivo
From the text: Male BDF mice (12 weeks old, weight approximately 28.9 g) were implanted with the pancreatic ductal cell carcinoma #03 3 days before beginning treatment with (HO)2DEHSPM.

[2] = test system: pancreatic native polyamine pools; assay: Tissue drug and native polyamine levels (pancreas, liver) in treated dogs; type: in vivo, beagles
From the text: The two dogs (#490 and 494) were fed a prescription canned and dry dog food and were supplemented with Viokase, a pancreatic enzyme preparation, by mixing three tablets with food or by oral administration immediately before each feeding. The dogs were maintained on this regimen for approximately three weeks. During this time, their weight and blood chemistries were closely monitored. The Viokase supplementation was then stopped and the same parameters were again evaluated. One week after the Viokase administration had ceased, the animals were euthanized and tissues were taken for histology and for the determination of tissue polyamine levels.
As the pancreatic insufficiency side-effect that was observed after the administration of the (R,R)—(HO)2DEHSPM to the beagles may have been related to the (R,R)-chirality of the molecule, the (S,S)-enantiomer was synthesized and was compared in a head-to-head fashion with the (R,R)-enantiomer. To perform this experiment, five male beagles approximately 6-8 months of age were obtained from Harlan Sprague Dawley. There were provided with food and water ad libitum and were allowed to acclimate to their new surroundings for two weeks. The animals were weighed prior to starting drug administration and were weighed once per week during the drug dosing period. A CBC and chemistry panel and a Holter monitor were performed once per week. In addition to the usual tests, additional pancreatic function-specific tests were also performed. These additional evaluations included a fecal trypsin test, examination of the feces for fecal fat and serum trypsin-like immunoreactivity determinations. It was hoped that these signs of pancreatic insufficiency would only appear in the animals given the (R,R)-enantiomer and would not be observed in the dogs that were given the (S,S)-molecule. The pancreatic insufficiency may not become evident until approximately 7-8 weeks post-drug. At the conclusion of the experiment, all of the animals were sacrificed and the histology and tissue polyamine levels were determined.
• 1. Dogs #468 and 500 were given (R,R)—(HO)2DEHSPM subcutaneously twice daily for 13 days. • 2. They were fed Purina Dog Chow ad libitum and given free access to water. • 3. Polyamine levels in the pancreas were also analyzed at several time points post-drug. • 4. At the start of the experiment, dog #468 weighed 14.4 kg and dog #500 weighed 12.8 kg. The latter animal's weight never exceeded 13.2 kg. At the end of the drug dosing period, dog #468 weighed 13.0 kg, a loss of 1.4 kg; dog #500 weighed 13.2 kg, a gain of 0.4 kg. • 5. […] The pancreatic native polyamine pools (most especially SPD) were markedly diminished compared to untreated control tissue: [SPM]control=3,985 μm v. [SPM10-days post-treatment=2,548 μm (64% of control) [SPD]control=2,820 μm v [SPD]10-days post-treatment=721 μm (25.6% of control) • 6. Dog #468 was bright, alert and responsive until day thirteen of drug administration. […] The dog was fed boiled chicken and rice, as well as Nutrical (a caloric supplement) and cat food and was slowly weaned back to regular dog food. Frank and/or occult blood was found in the dog's stool until about 17-days post-drug. • 7. Dog #500 was bright, alert and responsive throughout the experiment. […] However, stool consistency had normalized by one week post-drug. • 8. […] The inability to digest fats was confirmed when this test was repeated and the fatty meal was supplemented with Viokase (a pancreatic enzyme supplement). […] (2.15 mg/kg every 12 hours) for 13 days • Route: subcutaneously • 1. Dogs #440 and 476 were given (S,S)— (HO)2DEHSPM subcutaneously twice daily for 13 days. • […]. They were fed Purina Dog Chow ad libitum and given free access to water. • 3. At the start of the experiment, dog #440 weighed 11.8 kg.
Two animals were also treated with DEHSPM at a dose equimolar to the (HO)2DEHSPM dosage and sacrificed at 1- and 75-days after the final treatment. […]

[3] = test system: pancreas; assay: Pancreas anatomy and function in DEHSPM-treated animals; type: in vivo; details: equimolar dose
Procedure: Two animals were also treated with DEHSPM at a dose equimolar to the (HO)2DEHSPM dosage and sacrificed at 1- and 75-days after the final treatment. […] At 1-day post-treatment, the total amount of drug: (parent+metabolites)1-day post-treatment=951 μm. […] At 75-days post-treatment, a substantial amount of DEHSPM remains in the pancreas: (parent+metabolites)75-days post-treatment=595 μm.
The nearly normal polyamine pools are mirrored by the anatomy.

[4] = Non-tumor-bearing toxicity controls, same regimens; type: in vivo
[5] = group 2, tumor-bearing, IV QD 3, 4, 6-9, 14, 17, 18, total dosage 240 mg/kg
[6] = group 2, tumor-bearing, total dosage 240 mg/kg IV
[7] = group 4, tumor-bearing, IV QD 3-18, total dosage 205 mg/kg
[8] = group 4, tumor-bearing, total dosage 205 mg/kg IV
[9] = group 6, tumor-bearing, total dosage 102.5 mg/kg IV
[10] = 1-day post-treatment, equimolar dose
[11] = 75-days post-treatment, equimolar dose
[12] = group 3, NTB, IV QD 3, 4, 6-9, 14, 17, 18, total dosage 240 mg/kg
[13] = group 3, NTB, total dosage 240 mg/kg IV
[14] = group 5, NTB, IV QD 3-18, total dosage 205 mg/kg
[15] = group 5, NTB, total dosage 205 mg/kg IV
[16] = group 7, NTB, IV QD 3-18, total dosage 102.5 mg/kg
[17] = group 7, NTB, total dosage 102.5 mg/kg IV

## CCNCCCCNCCCCNCCCCNCC [DEHSPM, reference compound]
[1]; [5]
  Mean Body Wt. Loss: −11.2 g/mouse
  Percent Body Wt. Loss: −38.0%
[1]; [6]
  Day of Wt. Loss Nadir: 35 days
  Drug Deaths (days of death): 0/5
[1]; [7]
  Mean Body Wt. Loss: −8.6 g/mouse
  Percent Body Wt. Loss: −29.0%
[1]; [8]
  Day of Wt. Loss Nadir: 35 days
  Drug Deaths (days of death): 0/5
[1]; group 6, tumor-bearing, IV QD 3-18, total dosage 102.5 mg/kg
  Mean Body Wt. Loss: −0.4 g/mouse
[1]; [9]
  Day of Wt. Loss Nadir: 7 days
  Drug Deaths (days of death): 0/5
[2]; 1-day post-treatment, dose equimolar to the (HO)2DEHSPM dosage
  total amount of drug (parent+metabolites) in pancreas: 951 μm
[2]; [10]
  [SPD] in pancreas: 863 μm
  [SPD] in pancreas, % of control: 30.6 % of control
  [SPM] in pancreas: 2,770 μm
  [SPM] in pancreas, % of control: 69.5 % of control
[2]; [11]
  PUT in pancreas: 60 μm
  [SPD] in pancreas: 1,572 μm
  [SPD] in pancreas, % of control: 55.7 % of control
  [SPM] in pancreas: 3,162 μm
  [SPM] in pancreas, % of control: 79.3 % of control
  drug (parent+metabolites) in pancreas: 595 μm
[3]; 75-days post-treatment
  pancreas anatomy: essentially normal macroscopically and microscopically
[3]
  exocrine and endocrine pancreatic functions: appeared normal
[4]; [12]
  Mean Body Wt. Loss: −8.5 g/mouse
  Percent Body Wt. Loss: −30.0%
[4]; [13]
  Day of Wt. Loss Nadir: 35 days
  Drug Deaths (days of death): 0/2
[4]; [14]
  Mean Body Wt. Loss: −7.5 g/mouse
  Percent Body Wt. Loss: −26.0%
[4]; [15]
  Day of Wt. Loss Nadir: 35 days
  Drug Deaths (days of death): 0/2
[4]; [16]
  Mean Body Wt. Loss: −1.0 g/mouse
  Percent Body Wt. Loss: −3.0%
[4]; [17]
  Day of Wt. Loss Nadir: 23 days
  Drug Deaths (days of death): 0/2
